Source: ChEMBL document CHEMBL1135557 (Bioorg Med Chem Lett, 2002)
≈ marks a conversion by molar mass, not a printed value.

Legend:
HCT-116 = assay: In vitro cytotoxic activity (growth inhibition) of compound against HCT 116 cancer cell line was determined; format: functional; conditions: Homo sapiens
Tubulin = Tubulin (Sus scrofa, UniProt P02554+P02550); assay: Concentration of compound required to inhibit tubulin polymerization (Microtubule assembly) was determined by the turbidity formation after 20 min of incubation; format: functional
PC-12 = assay: In vitro cytotoxic activity (growth inhibition) of compound against PC-12 human cancer cell line was determined
[1] = target: Tubulin alpha chain (Sus scrofa) (UniProt P02550); assay: Inhibitory binding percentage of compound towards colchicine site in tubulin using tubulin-[3H]colchicine as radioligand at a concentration of 200 uM
[2] = target: Tubulin alpha chain (Sus scrofa) (UniProt P02550); assay: Inhibitory binding percentage of compound towards colchicine site in tubulin using tubulin-[3H]colchicine as radioligand at a concentration of 100 uM

Sequence of Tubulin alpha chain (Sus scrofa) (P02550 whole entry, looked up): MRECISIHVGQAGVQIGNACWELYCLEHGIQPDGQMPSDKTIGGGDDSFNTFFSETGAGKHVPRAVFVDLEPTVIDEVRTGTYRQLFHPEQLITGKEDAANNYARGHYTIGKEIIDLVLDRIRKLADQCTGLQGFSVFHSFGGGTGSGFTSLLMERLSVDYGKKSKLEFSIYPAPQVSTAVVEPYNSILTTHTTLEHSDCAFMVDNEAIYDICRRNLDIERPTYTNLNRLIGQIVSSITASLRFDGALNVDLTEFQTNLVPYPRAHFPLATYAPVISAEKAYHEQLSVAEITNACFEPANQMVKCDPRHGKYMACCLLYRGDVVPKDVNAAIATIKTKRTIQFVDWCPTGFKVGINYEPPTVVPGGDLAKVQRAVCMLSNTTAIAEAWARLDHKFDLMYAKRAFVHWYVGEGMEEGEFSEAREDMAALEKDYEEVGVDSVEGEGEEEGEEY

SMILES | GI50 (HCT-116) [µg/mL] | IC50 (Tubulin) [µM] | GI50 (PC-12) [µg/mL] | Inhibitory binding [1] [%] | Inhibitory binding [2] [%]
Cc1c(/C=C/CN2CCN(c3cccc(Cl)c3)CC2)cnn1-c1ncccn1.Cl | 0.254 | 35.96 | 0.181 | – | –
CC[C@]1(O)C[C@@H]2CN(CCc3c([nH]c4ccccc34)[C@@](C(=O)OC)(c3cc4c(cc3OC)N(C)[C@H]3[C@@](O)(C(=O)OC)[C@H](OC(C)=O)[C@]5(CC)C=CCN6CC[C@]43[C@@H]65)C2)C1 [VINBLASTINE] | 0.001 (≈ 0.00123 µM) | – | 0.0102 (≈ 0.0126 µM) | – | –
COc1cc2c(c(OC)c1OC)-c1ccc(OC)c(=O)cc1[C@@H](NC(C)=O)CC2 [COLCHICINE] | 0.0084 (≈ 0.021 µM) | – | 0.0315 (≈ 0.0789 µM) | 100 | 98
Cc1c(/C=C/CN2CCN(c3cc(F)cc(F)c3)CC2)cnn1-c1ccnc(N)n1.Cl | 0.0329 | 3.72 | 0.0199 | – | –
Cc1c(/C=C/CN2CCN(c3cc(F)cc(F)c3)CC2)cnn1-c1ncccn1.Cl | 0.0701 | 9.08 | 0.0625 | 93 | 82
Cc1c(/C=C/CN2CCN(c3cc(F)cc(F)c3)CC2)cnn1-c1nccc(N)n1.Cl | 0.0208 | 11.05 | 0.0216 | – | –
